Test results taken from the supplement of paper PMC10307832.

How the values were obtained:
Experiment in all cases: relative viability (nuclei count vs DMSO), 5 days (fraction); higher = more cells survive
[1] = compound: CC(C)C[C@H](NC(=O)[C@H](Cc1ccccc1)NC(=O)c1cnccn1)B(O)O [Bortezomib] + Cc1nc(Nc2ncc(C(=O)Nc3c(C)cccc3Cl)s2)cc(N2CCN(CCO)CC2)n1 [Dasatinib] (partner 0.075 µM)
How it was run: (§1)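 Values are medians from duplicate plates. Each reflects relative viability, defined as the nuclei count of treated wells over that of vehicle wells. Lung cancer cell lines in 1536-well plates were pin-tool dosed one day after seeding with one drug alone or with a fixed anchor-drug dose plus five library-drug doses (not always all listed) in √10 steps, then fixed, stained and imaged at 4× after 5 days.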

[2] = compound: CC1=CC(=NN1)NC2=CC(=NC(=N2)/C=C/C3=CC=CC=C3)N4CCN(CC4)C + CC(=O)Nc1cccc(-n2c(=O)n(C3CC3)c(=O)c3c(Nc4ccc(I)cc4F)n(C)c(=O)c(C)c32)c1 [Trametinib] (partner 0.02 µM)
How it was run: as §1

[3] = compound: COC1=CC(c2cc3ccccc3[nH]2)=N/C1=C\c1[nH]c(C)cc1C [Obatoclax] + Nc1nc2[nH]cc(CCc3ccc(C(=O)N[C@@H](CCC(=O)O)C(=O)O)cc3)c2c(=O)[nH]1 [Pemetrexed] (partner 0.2 µM)
How it was run: as §1

[4] = compound: CC1=CC(=NN1)NC2=CC(=NC(=N2)/C=C/C3=CC=CC=C3)N4CCN(CC4)C + CC1(C)CCC(c2ccc(Cl)cc2)=C(CN2CCN(c3ccc(C(=O)NS(=O)(=O)c4ccc(N[C@H](CCN5CCOCC5)CSc5ccccc5)c(S(=O)(=O)C(F)(F)F)c4)cc3)CC2)C1 [Navitoclax] (partner 0.5 µM)
How it was run: as §1

Cell Line	relative viability ([1]; first compound 0.0002 µM)	relative viability ([1]; first compound 0.000632 µM)	relative viability ([1]; first compound 0.002 µM)	relative viability ([1]; first compound 0.006325 µM)	relative viability ([1]; first compound 0.02 µM)	relative viability ([2]; first compound 0.08 µM)	relative viability ([2]; first compound 0.253 µM)	relative viability ([2]; first compound 0.8 µM)	relative viability ([2]; first compound 2.53 µM)	relative viability ([2]; first compound 8 µM)	relative viability ([3]; first compound 0.01 µM)	relative viability ([3]; first compound 0.03162 µM)	relative viability ([3]; first compound 0.1 µM)	relative viability ([3]; first compound 0.3162 µM)	relative viability ([3]; first compound 1 µM)	relative viability ([4]; first compound 0.08 µM)	relative viability ([4]; first compound 0.253 µM)	relative viability ([4]; first compound 0.8 µM)	relative viability ([4]; first compound 2.53 µM)	relative viability ([4]; first compound 8 µM)
HCC-366	0.664	0.474	0.726	0.481	0.0296	0.334	0.372	0.253	0.0375	0.0236	0.152	0.172	0.114	0.223	0.309	1.07	1.19	0.989	0.371	0.0097
HCC-827	0.302	0.285	0.259	0.34	0.199	0.507	0.405	0.513	0.427	0.273	0.241	0.275	0.247	0.17	0.278	0.972	1.04	0.979	0.937	0.705
HOP-62	0.581	0.645	0.713	0.228	0.068	0.382	0.297	0.36	0.337	0.163	0.279	0.377	0.329	0.424	0.358	0.903	1.27	1.03	1	0.124
IA-LM	–	–	–	–	–	–	–	–	–	–	–	–	–	–	–	0.733	0.76	1.12	0.669	0.148
LC-2-ad	0.52	0.332	0.6	0.149	0.187	0.873	0.89	0.868	0.463	0.196	0.268	0.285	0.261	0.264	0.285	0.432	0.332	0.224	0.0861	0.0584
LCLC-97TM1	0.738	0.732	0.862	0.718	0.148	0.186	0.142	0.209	0.182	0.0966	0.171	0.188	0.18	0.178	0.161	0.492	0.781	0.294	0.201	0.106
LCLC-103H	0.461	0.486	0.435	0.161	0.123	0.667	0.641	0.677	0.651	0.528	0.461	0.487	0.379	0.519	0.528	–	–	–	–	–
LK-2	0.287	0.304	0.203	0.114	0.138	0.836	0.48	0.697	0.417	0.129	0.273	0.227	0.248	–	0.317	0.821	1.03	0.711	0.247	0.133
LOU-NH91	0.539	0.529	0.519	0.271	0.226	0.767	0.823	0.754	0.783	0.439	0.334	0.382	0.323	0.379	0.47	0.706	0.729	0.697	0.387	0.201
LU99A	0.521	0.381	0.655	0.433	0.174	0.54	0.311	0.532	0.328	0.165	0.16	0.172	–	0.183	0.18	0.766	0.781	0.57	0.25	0.125
NCI-H358	0.162	0.153	0.164	0.084	0.073	0.124	0.123	0.128	0.0733	0.0762	0.159	0.185	0.166	0.192	0.14	–	–	–	–	–
NCI-H522	0.875	0.79	0.965	0.4	0.393	0.856	0.676	0.823	0.688	0.362	0.955	1	1.33	1.09	0.872	–	–	–	–	–
NCI-H661	0.851	0.836	0.773	0.331	0.168	0.593	0.478	0.628	0.256	0.242	0.883	0.975	0.933	0.874	0.848	–	–	–	–	–
NCI-H727	0.369	0.38	0.415	0.184	0.147	0.355	0.347	0.429	0.347	0.285	–	–	–	–	–	0.423	0.483	0.378	0.286	0.0872
NCI-H1299	–	–	–	–	–	–	–	–	–	–	–	–	–	–	–	1.04	1.13	1.03	0.863	0.243
NCI-H1563	0.448	0.428	0.411	0.465	0.455	–	–	–	–	–	0.803	0.713	0.583	0.727	0.896	–	–	–	–	–
NCI-H1623	0.537	0.572	0.565	0.52	0.262	–	–	–	–	–	–	–	–	–	–	–	–	–	–	–
NCI-H1648	–	–	–	–	–	0.47	0.412	0.497	0.435	0.316	0.758	0.746	1.06	0.64	0.782	–	–	–	–	–
NCI-H1703	–	–	–	–	–	–	–	–	–	–	–	–	–	–	–	0.929	0.965	0.283	0.134	0.108
NCI-H2342	0.286	0.306	0.322	0.334	0.349	1	0.869	0.958	0.962	0.602	0.836	0.775	0.683	0.641	0.757	–	–	–	–	–
SW 900	0.74	0.507	0.167	0.107	0.116	0.957	0.625	0.839	0.215	0.0981	0.494	0.303	0.527	0.48	0.446	–	–	–	–	–
